Measured values reported in PubChem BioAssay (NCI).
Values joined by “and” are separate entries in the source; they are usually repeats but may differ in a detail not shown here. Identical values can stand only once.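 1) Cells in 96-well plates. 2) Compound, 48 h, 5 concentrations. 3) Linear interpolation between surrounding doses. 4) Unreached endpoint = highest concentration. At the GI50, growth is halved. TGI marks complete inhibition of growth.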

How the values were obtained:
Assay in all cases: NCI-60 cell line screen, 48 h
BT-549 breast = system: BT-549 breast
DU-145 prostate = system: DU-145 prostate
HS 578T breast = system: HS 578T breast
MCF7 breast = system: MCF7 breast
MDA-MB-231 breast = system: MDA-MB-231 breast
MDA-MB-435 = system: MDA-MB-435
NCI/ADR-RES ovarian = system: NCI/ADR-RES ovarian

| Structure (SMILES) | TGI (BT-549 breast) | TGI (DU-145 prostate) | TGI (HS 578T breast) | TGI (MCF7 breast) | TGI (MDA-MB-231 breast) | TGI (MDA-MB-435) | TGI (NCI/ADR-RES ovarian) | GI50 (BT-549 breast) | GI50 (DU-145 prostate) | GI50 (HS 578T breast) | GI50 (MDA-MB-231 breast) | GI50 (MDA-MB-435) | GI50 (NCI/ADR-RES ovarian) | GI50 (MCF7 breast) |
| --- | --- | --- | --- | --- | --- | --- | --- | --- | --- | --- | --- | --- | --- | --- |
| Cc1cccc(C)c1NC(=O)Nc1ccc(S(N)(=O)=O)cc1 | > 100 µM | > 100 µM | > 100 µM | > 100 µM | > 100 µM | > 100 µM | > 100 µM |  |  |  |  |  |  |  |
| N#CC1=C(N)NC(N2CCOCC2)=NC12Nc1ccccc1N2 | > 100 µM | > 100 µM | 54.2 µM |  | 70.3 µM | > 100 µM | 87 µM | 32.6 µM | 63.6 µM | 18.9 µM | 15.3 µM | 31 µM | 28.3 µM |  |
| CCn1c(-c2cc3ccccc3cc2O)nn(C(=O)c2c(Cl)cccc2Cl)c1=S | 36.7 µM | > 50 µM | 21.5 µM | > 50 µM | > 50 µM | > 50 µM | > 50 µM | 15.6 µM | 41.1 µM | 8.76 µM | 44.4 µM | > 50 µM | > 50 µM | > 50 µM |
| COc1cccc(NC(=O)c2sc3nc4c(cc3c2N)C(=O)CCC4)c1 | > 90.5 µM | > 100 µM | > 100 µM | > 100 µM | 7.59 µM | 0.0548 µM | > 45.9 µM | 0.282 µM | 0.231 µM | 0.0816 µM | 0.209 µM | 0.0221 µM | 0.102 µM | 0.0443 µM |
| N#CCN/C=C\C(=O)c1ccc(Cl)cc1 |  | > 100 µM | > 100 µM | > 100 µM | > 100 µM | > 100 µM | 79.5 µM |  | 41.4 µM | 37.1 µM | 31.8 µM | 30.3 µM | 28.9 µM | 32.5 µM |
| Cc1cc(C)c(Cn2cnc3c(Cl)ncnc32)c(C)c1CCl | > 100 µM |  | > 100 µM | > 100 µM | > 100 µM | > 100 µM | > 100 µM | > 100 µM |  | > 100 µM | > 100 µM | > 100 µM | > 100 µM | 30.5 µM |
| COc1cc(CNc2ccccc2C(=O)N2CCN(C(=O)c3cc(-c4cc(OC)c(OC)c(OC)c4)n4nc(-c5ccccc5)cc4n3)CC2)cc(OC)c1OC | 49.1 µM | > 100 µM | > 100 µM | > 100 µM | 67.8 µM |  | 5.76 µM | 3.27 µM | 3.96 µM | 3.8 µM | 7.02 µM |  | 1.95 µM | 3.01 µM |
| Cn1c2ccc(Br)cc2c2c3c(c4c5ccccc5[nH]c4c21)C(=O)N(O)C3=O | 0.45 µM | 0.57 µM | 1.04 µM | 0.309 µM | 0.607 µM | 0.498 µM | > 100 µM | 0.149 µM | 0.0871 µM | 0.291 µM | 0.21 µM | 0.18 µM | 0.357 µM | 0.04 µM |
| CNC(=O)Cc1nc(-c2cccc(NS(=O)(=O)c3c(F)cccc3F)c2F)c(-c2ccnc(Nc3ccccc3)n2)s1 | > 50 µM | > 50 µM | 43.7 µM | > 50 µM | > 15.3 µM | > 44 µM | > 50 µM | > 35.8 µM | 12.6 µM | 0.482 µM | 1.04 µM | 0.0445 µM | > 50 µM | 19.1 µM |
| CN/N=C(\C)C(CN(C)C)C(c1ccccc1)c1c(O)c2ccccc2oc1=O (stereo unspecified) | > 100 µM | > 100 µM | > 100 µM | > 100 µM | > 100 µM | > 100 µM | > 100 µM |  |  |  |  |  |  |  |
| COc1ccc(C(=O)c2cc3c(N)c(C(=O)Nc4ccc(C)cc4)sc3nc2C)cc1 | 41.8 µM | 27.4 µM | 17.9 µM | > 100 µM | 13.2 µM | 1.35 µM | 15.4 µM | 4.83 µM | 3.63 µM | 2.29 µM | 2.7 µM | 0.275 µM | 2.55 µM | 1.43 µM |
| Cc1cc(N2CCSCC2)nc(NC2CCCC(Nc3ccnc4cc(Cl)ccc34)C2)n1 (stereo unspecified) | 3.79 µM | 12.5 µM | 4.64 µM |  | 3.89 µM | 3.09 µM | 5.15 µM | 1.71 µM | 3.13 µM | 1.87 µM | 1.95 µM | 1.68 µM | 2.01 µM |  |
| O=Cc1ccc(-c2ccc(-c3nc4ccccc4o3)cc2)o1 | > 100 µM | > 100 µM |  | > 100 µM | 61.6 µM | > 100 µM | 63.8 µM | 35.4 µM | 50.1 µM |  | 21 µM | 33.1 µM | 18.3 µM | 14.8 µM |
| C=C(Nc1ccc([N+](=O)[O-])cc1[N+](=O)[O-])c1c/c(=N\NC(N)=S)c2ccccc2o1 | > 100 µM | > 100 µM | > 100 µM | > 100 µM | > 100 µM | > 100 µM | > 100 µM |  |  |  |  |  |  |  |
| O=C1/C(=C\c2ccccn2)c2ccccc2N1c1c(Cl)cccc1Cl | 4.88 µM | 3.95 µM | 37.4 µM | 14.3 µM | 5.74 µM | 5.03 µM | 6.95 µM | 2.21 µM | 1.94 µM | 3.92 µM | 2.17 µM | 1.93 µM | 2.51 µM | 2.41 µM |
| Cc1sc2c(c1C)C(c1ccc(Cl)cc1)=N[C@@H](CC(=O)OC(C)(C)C)c1nnc(C)n1-2 | 20.8 µM and 20 µM | 33.3 µM and 22.1 µM | 18.4 µM and 18.1 µM | 17.9 µM and 13.6 µM | 26 µM and 18.5 µM | 20.3 µM and 17 µM | 24 µM and 20.9 µM | 1.15 µM and 3.1 µM | 13.4 µM and 8.51 µM | 0.139 µM and 0.0567 µM | 0.714 µM and 0.304 µM | 0.348 µM and 0.135 µM | 0.506 µM and 0.396 µM | 0.117 µM and 0.06 µM |
| CCCCCCCCCCCCCCCCCC(=O)OCC(COC(=O)CCCN)OC(=O)CCCN (stereo unspecified) |  | 33.7 µM | 43.7 µM | 47.1 µM | 28.2 µM | 33.2 µM | 37 µM |  |  |  |  |  |  |  |
| CCC(CNc1cc(OC)cc2cccnc12)NC1CCCCC1 (stereo unspecified) |  | > 100 µM | 95.6 µM | > 100 µM | > 100 µM | > 100 µM | > 100 µM |  | 35.5 µM | 15.2 µM | 40.7 µM | 32.6 µM | 35.3 µM | 20.7 µM |
| Cc1cn2c(/C=N/N=C(N)N)c(-c3cccs3)nc2s1 | 22.8 µM |  | 32.6 µM | 13.7 µM | 5.79 µM | 18.5 µM | 28.7 µM | 8.07 µM |  | 11.4 µM | 1.9 µM | 4.96 µM | 15.3 µM | 2.79 µM |
